This is an account of results in PubChem BioAssay (NCI).

Values joined by “and” are separate entries in the source; they are usually repeats but may differ in a detail not shown here. Equal values may be shown once.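 A five-concentration, 48-hour dose response in 96-well plates underlies each endpoint, interpolated linearly between surrounding concentrations. GI50: concentration for 50% inhibition of growth. At the TGI there is no net growth.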

Some test systems named below: COLO 205 colon; DU-145 prostate; HCC-2998 colon; HL-60(TB) leukemia; LOX IMVI melanoma; PC-3 prostate; RPMI-8226 leukemia; SN12C renal; SR leukemia; UACC-257 melanoma.
Common to all, as to assay: growth of human tumour cells (NCI), 48 h

Turning to `COc1ncc(-c2nc3c(n2C(C)C)[C@H](c2ccc(Cl)cc2)N(c2cc(Cl)cn(C)c2=O)C3=O)c(OC)n1`, the GI50 in the test with COLO 205 colon is 36.9 µM; in the test with DU-145 prostate, 94.8 µM; with HCC-2998 colon it was 60.1 µM; with HL-60(TB) leukemia, 31.2 µM; in the test with LOX IMVI melanoma it was 11.2 µM; with PC-3 prostate, 20.2 µM. Besides, the GI50 in the test with RPMI-8226 leukemia is 24.5 µM; with SN12C renal, 49.8 µM; in the test with SR leukemia it was 6.14 µM; in the test with UACC-257 melanoma it was 17.2 µM. Moreover, the TGI was more than 100 µM with COLO 205 colon; more than 100 µM with DU-145 prostate; more than 100 µM in the test with HCC-2998 colon; 99.7 µM in the test on HL-60(TB) leukemia; more than 100 µM in the test with LOX IMVI melanoma; more than 100 µM in the test with PC-3 prostate. In addition, the TGI with RPMI-8226 leukemia was 87.5 µM; in the test on SN12C renal, more than 100 µM; with SR leukemia, 77.1 µM; in the test with UACC-257 melanoma, 94.4 µM.

`COC(=O)c1ccccc1NC(=O)C(=O)CC(=O)c1ccccc1NC1=CC(=O)C(=O)c2ccccc21`: the TGI in the test with COLO 205 colon is 53.1 µM; in the test on DU-145 prostate, more than 53.8 µM; with HCC-2998 colon it was 66.7 µM; in the test with HL-60(TB) leukemia it was 12 µM; in the test with LOX IMVI melanoma, 4.76 µM; with PC-3 prostate, 42.3 µM. Further, the TGI with RPMI-8226 leukemia is 35.1 µM; in the test on SN12C renal, 15.1 µM; with SR leukemia, more than 100 µM; with UACC-257 melanoma, 14.8 µM.

In the case of `CN1CCN(c2ccc(-c3cnc4c(-c5csc6ccccc56)cnn4c3)cc2)CC1`, the GI50 is 7.28 µM with COLO 205 colon; 5.59 µM in the test with DU-145 prostate; 6 µM in the test with HCC-2998 colon; 5.89 µM with HL-60(TB) leukemia; 2.65 µM in the test with LOX IMVI melanoma; 5.59 µM in the test on PC-3 prostate. The GI50 was 2.99 µM in the test with RPMI-8226 leukemia, 14.8 µM in the test on SN12C renal, 3.03 µM in the test on SR leukemia and 13.8 µM in the test with UACC-257 melanoma. In addition, the TGI in the test with COLO 205 colon is more than 15 µM; with DU-145 prostate, more than 15 µM; with HCC-2998 colon it was more than 15 µM; in the test with HL-60(TB) leukemia, more than 15 µM; with LOX IMVI melanoma, 5.4 µM; with PC-3 prostate, more than 15 µM. The TGI in the test with RPMI-8226 leukemia was 9.75 µM; with SN12C renal, more than 15 µM; with SR leukemia it was more than 15 µM; in the test with UACC-257 melanoma, more than 15 µM.

Regarding `CO[C@H]1[C@H](O)[C@H](O[C@H]2CC[C@@]3(C)[C@H](CC[C@@H]4[C@@H]3CC[C@]3(C)[C@@H](C5=CC(=O)OC5)CC[C@]43O)C2)O[C@@H](C)[C@@H]1O`, the TGI is 0.00509 µM and 0.0316 µM with COLO 205 colon; less than 0.0001 µM in the test on DU-145 prostate; 0.0584 µM and 0.0399 µM with HCC-2998 colon; 0.00363 µM with HL-60(TB) leukemia; 0.00271 µM and < 0.0111 µM with LOX IMVI melanoma; 0.524 µM in the test with PC-3 prostate. Further, the TGI was 0.00542 µM in the test with RPMI-8226 leukemia; 0.00112 µM and < 0.0107 µM with SN12C renal; 0.0273 µM with SR leukemia; 0.00571 µM and < 0.0137 µM in the test on UACC-257 melanoma. The GI50 with HL-60(TB) leukemia is 0.00175 µM; in the test on PC-3 prostate, 0.00525 µM; with SR leukemia, less than 0.0001 µM.

As for `Cc1cc(=O)oc2cc(OC(=O)Nc3ccc(Cl)c(Cl)c3)ccc12`, the TGI came to 96.5 µM in the test on COLO 205 colon; 90.5 µM in the test on DU-145 prostate; 41 µM in the test on HCC-2998 colon; 41.9 µM in the test on HL-60(TB) leukemia; 37.2 µM in the test with LOX IMVI melanoma; 68.2 µM in the test on PC-3 prostate. Further, the TGI turned out to be 36.2 µM in the test on RPMI-8226 leukemia, 70.9 µM in the test with SN12C renal, 46.3 µM in the test on SR leukemia and 84.2 µM in the test on UACC-257 melanoma.

For the compound `CN(C)CCNC(=O)c1cccc2cc3ccccc3nc12`, the GI50 was 0.779 µM in the test with COLO 205 colon; 1.8 µM in the test on DU-145 prostate; 1.63 µM with HCC-2998 colon; 1.03 µM in the test with HL-60(TB) leukemia; 0.802 µM in the test with LOX IMVI melanoma; 2.33 µM with PC-3 prostate. In addition, the GI50 in the test on RPMI-8226 leukemia was 1.89 µM; in the test with SN12C renal, 1.84 µM; in the test on SR leukemia, 0.338 µM; with UACC-257 melanoma it was 1.6 µM. Also, the TGI in the test with COLO 205 colon came to 3.55 µM; with DU-145 prostate, 4.37 µM; in the test on HCC-2998 colon, 5.9 µM; with HL-60(TB) leukemia, 5.3 µM; in the test on LOX IMVI melanoma it was 3.48 µM; in the test with PC-3 prostate it was 10.8 µM. In addition, the TGI with RPMI-8226 leukemia was more than 25.2 µM; in the test on SN12C renal, more than 19.9 µM; with SR leukemia, 8.1 µM; in the test on UACC-257 melanoma, 3.55 µM.

For `CCc1cccc(CC)c1NC(=S)NC(=O)c1ccc(Br)cc1`, the TGI in the test on COLO 205 colon was more than 53.3 µM; in the test with DU-145 prostate, more than 100 µM; with HCC-2998 colon, more than 100 µM; in the test on HL-60(TB) leukemia, 26.3 µM; in the test on LOX IMVI melanoma, more than 56.2 µM; in the test with PC-3 prostate it was more than 100 µM. In addition, the TGI in the test with RPMI-8226 leukemia is more than 100 µM; with SN12C renal, more than 81.4 µM; in the test on SR leukemia it was 66.3 µM; in the test with UACC-257 melanoma, more than 100 µM.

In the case of `COc1ccc(-c2cnc(-c3ccc(F)cc3)[nH]2)cc1`, the GI50 in the test with COLO 205 colon was 2.2 µM; in the test on DU-145 prostate it was 2.59 µM; in the test with HCC-2998 colon, 7.4 µM; with HL-60(TB) leukemia, 2.03 µM; in the test on LOX IMVI melanoma, 5.49 µM; in the test on PC-3 prostate it was 10.8 µM. The GI50 in the test on RPMI-8226 leukemia was 2.39 µM; with SN12C renal, 8.34 µM; with SR leukemia it was 2.41 µM; in the test on UACC-257 melanoma, 5.17 µM. Besides, the TGI is 7.59 µM in the test with COLO 205 colon; 7.59 µM in the test on DU-145 prostate; 25.1 µM in the test with HCC-2998 colon; 23.4 µM in the test on HL-60(TB) leukemia; 10.8 µM with LOX IMVI melanoma; 68.4 µM in the test on PC-3 prostate. Further, the TGI with RPMI-8226 leukemia is more than 27.2 µM; with SN12C renal it was 23.7 µM; in the test on SR leukemia it was 6.27 µM; with UACC-257 melanoma, 17.2 µM.

In the case of `CCOC(=O)/C=C1\SC(=Nc2ccc(C#N)cc2)N(CCN2C(=O)/C(=C/C(=O)OCC)SC2=Nc2ccc(C#N)cc2)C1=O`, the GI50 in the test with COLO 205 colon is 3.05 µM; with DU-145 prostate, 3.04 µM; in the test with HCC-2998 colon, 2.4 µM; with HL-60(TB) leukemia, 2.66 µM; in the test with LOX IMVI melanoma, 0.585 µM; with PC-3 prostate, 1.28 µM. Moreover, the GI50 in the test on RPMI-8226 leukemia is 0.415 µM; in the test with SN12C renal, 2.58 µM; in the test with SR leukemia, 0.303 µM; in the test with UACC-257 melanoma, 14 µM. For the same compound, the TGI with COLO 205 colon amounted to 11.5 µM; in the test on DU-145 prostate, 13.6 µM; in the test on HCC-2998 colon it was 6.61 µM; in the test with HL-60(TB) leukemia, 25.6 µM; with LOX IMVI melanoma, 1.28 µM; in the test with PC-3 prostate, 13.4 µM. Further, the TGI was 2.99 µM in the test on RPMI-8226 leukemia, 16.6 µM in the test with SN12C renal, more than 100 µM with SR leukemia and 36.4 µM with UACC-257 melanoma.
